Here are results for 4 molecules from PMC6100189, “In Silico Docking and In Vitro Approaches towards BACE1 and Cholinesterases Inhibitory Effect of Citrus Flavanones” (Molecules : A Journal of Synthetic Chemistry and Natural …, 2018).

The structures appear in SMILES notation.

For data set [1], the system named is ECV304/C6 co-culture model. To be noted: in vitro ECV304/C6 co-culture model ref 27; cited from earlier work.
The target in data set [2] is T1, AChE (Electrophorus electricus, UniProt O42275).
T1 construct: purchased Sigma-Aldrich (St. Louis, MO, USA)
T1 sequence (O42275 24-633): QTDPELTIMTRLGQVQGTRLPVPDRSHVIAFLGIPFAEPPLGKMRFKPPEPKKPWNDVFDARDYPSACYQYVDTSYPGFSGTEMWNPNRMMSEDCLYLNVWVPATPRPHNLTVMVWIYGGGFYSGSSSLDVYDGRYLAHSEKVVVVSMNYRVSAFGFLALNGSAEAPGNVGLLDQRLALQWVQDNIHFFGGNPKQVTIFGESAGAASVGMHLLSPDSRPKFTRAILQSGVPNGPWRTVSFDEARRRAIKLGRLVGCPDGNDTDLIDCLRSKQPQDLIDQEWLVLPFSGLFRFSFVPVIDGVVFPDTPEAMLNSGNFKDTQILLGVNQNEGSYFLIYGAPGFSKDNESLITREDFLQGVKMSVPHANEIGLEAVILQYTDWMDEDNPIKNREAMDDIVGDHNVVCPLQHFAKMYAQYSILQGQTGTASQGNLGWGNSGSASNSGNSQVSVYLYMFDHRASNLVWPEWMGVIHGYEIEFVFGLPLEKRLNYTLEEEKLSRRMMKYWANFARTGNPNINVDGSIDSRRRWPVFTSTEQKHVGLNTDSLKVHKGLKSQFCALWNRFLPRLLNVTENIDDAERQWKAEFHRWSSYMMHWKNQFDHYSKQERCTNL
Briefly: Inhibition kinetics on AChE (Dixon and Lineweaver–Burk plots). Format: biochemical. The conditions noted are these: for Inhibition mode on AChE: Dixon and Lineweaver–Burk plots; for Ki: Dixon plot. The method, then:
(§1) AChE and BChE inhibitory activities were assessed by a modified version of the Ellman colorimetric method. Each reaction mixture consisted of sodium phosphate buffer (pH 7.4), test sample solution, and either AChE (electrophorus electricus, 0.8 U/mL) or BChE (equine serum, 0.8 U/mL) solution, which was then mixed and incubated for 15 min at room temperature. Reactions were initiated upon addition of DTNB and substrate (0.75 mM).
(§2) The inhibitory constant (Ki) was obtained by interpretation of the Dixon plot, and Vmax and Km were defined by Lineweaver–Burk plots, using the initial velocities obtained over a substrate concentration range. These kinetic parameters were calculated using the Enzyme Kinetic™ module of SigmaPlot™ version 12.3 (Systat Software, Inc., San Jose, CA, USA).

In data set [3] the target is T2, BChE (Equus caballus, UniProt P81908).
T2 construct: BChE (equine serum, 0.8 U/mL); purchased Sigma-Aldrich (St. Louis, MO, USA); host or cells: equine serum
T2 sequence (P81908 whole entry): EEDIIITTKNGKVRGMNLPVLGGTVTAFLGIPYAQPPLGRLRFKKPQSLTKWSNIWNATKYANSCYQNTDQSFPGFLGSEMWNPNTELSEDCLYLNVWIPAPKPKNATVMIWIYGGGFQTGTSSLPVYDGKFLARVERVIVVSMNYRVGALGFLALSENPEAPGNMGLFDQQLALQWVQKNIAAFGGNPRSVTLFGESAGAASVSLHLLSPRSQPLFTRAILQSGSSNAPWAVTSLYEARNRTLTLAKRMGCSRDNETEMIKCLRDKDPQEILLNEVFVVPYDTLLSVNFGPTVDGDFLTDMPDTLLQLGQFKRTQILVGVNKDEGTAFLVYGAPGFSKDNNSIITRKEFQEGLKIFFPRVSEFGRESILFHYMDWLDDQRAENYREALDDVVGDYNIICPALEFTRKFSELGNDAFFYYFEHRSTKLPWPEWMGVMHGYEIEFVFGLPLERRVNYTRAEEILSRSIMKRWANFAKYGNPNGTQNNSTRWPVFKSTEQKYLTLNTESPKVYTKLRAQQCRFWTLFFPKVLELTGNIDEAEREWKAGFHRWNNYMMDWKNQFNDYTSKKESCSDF
Briefly: BChE inhibition, modified Ellman colorimetric method. The conditions noted are these: mean ± S.E. of triplicate experiments. The format is biochemical, equine.
Protocol: (§3) AChE and BChE inhibitory activities were assessed by a modified version of the Ellman colorimetric method [34]. Each reaction mixture consisted of sodium phosphate buffer (pH 7.4), test sample solution, and either AChE (electrophorus electricus, 0.8 U/mL) or BChE (equine serum, 0.8 U/mL) solution, which was then mixed and incubated for 15 min at room temperature. Reactions were initiated upon addition of DTNB and substrate (0.75 mM).
Enzymatic hydrolysis, mediated by AChE or BChE, was monitored according to the formation of yellow 5-thio-2-nitrobenzoate anions at 405 nm for 15 min, which were produced by the reaction of DTNB with thiocholine released from ACh or BCh. All reactions were performed in 96-well plates in triplicate, and recorded using a microplate spectrophotometer (Molecular Devices, Sunnyvale, CA, USA).

Data set [4] addresses T3, BACE1 (Homo sapiens, UniProt P56817).
T3 construct: purchased Invitrogen (Pan Vera, Madison, WI, USA)
Briefly: BACE1 inhibition assay (Invitrogen kit, Rh-[…]-Quencher substrate). Format: biochemical.
Protocol: (§4) The BACE1 kit from Invitrogen (Pan Vera, Madison, WI, USA) was used for the measurement of BACE1 activity. α-Secretase (tumor necrosis factor-α converting enzyme, TACE) and its fluorogenic substrate were purchased from R&D Systems (Minneapolis, MN, USA). Elastase, chymotrypsin, trypsin, and their substrates were obtained from Sigma-Aldrich.
(§5) BACE1, TACE, chymotrypsin, trypsin, and elastase assays were carried out according to previously described methods [33]. BACE1, TACE, trypsin, chymotrypsin, and elastase assays were carried out using Rh-[sequence]-Quencher, Mca-PLAQAV-Dpa-RSSSR-NH2, N-benzoyl-l-Arg-pNA, N-benzoyl-L-Tyr-pNA, and N-succinyl-Ala-Ala-Ala-pNA as substrates, respectively.

The target in data set [5] is T3, BACE1. Briefly: Inhibition kinetics on BACE1 (Dixon and Lineweaver–Burk plots). The format is biochemical. The conditions noted are these: for Inhibition mode on BACE1: Dixon and Lineweaver–Burk plots; for Ki: Dixon plot. The method, then:
as §2

Data set [6] has as its system mice. To be noted: orally 4.5 mg/kg body weight of mice ref 23; cited from earlier work.
Data set [7] has as its system Trypsin. Briefly: Trypsin inhibition assay. The format is biochemical. The conditions noted are these: mean ± S.E.
Protocol: as §4, §5
Data set [8] has as its target T1, AChE. Briefly: AChE inhibition, modified Ellman colorimetric method. The format is biochemical. To be noted: mean ± S.E. of triplicate experiments.
Protocol: as §3
All reactions were performed in 96-well plates in triplicate, and recorded using a microplate spectrophotometer (Molecular Devices, Sunnyvale, CA, USA).
In data set [9] the target is T4, Chymotrypsin (Bos taurus, UniProt P00766).
T4 construct: purchased Sigma-Aldrich
Briefly: Chymotrypsin inhibition assay. The format is biochemical. To be noted: mean ± S.E., read-out: Inhibitory activities (%) Chymotrypsin; for inhibition at 10 µM: sample 10 μM; for inhibition at 100 µM: sample 100 μM.
Protocol: as §4, §5

In data set [10] the test system is rat brain. The conditions noted are these: cited from earlier work.
Data set [11] deals with T5, Elastase (Sus scrofa, UniProt P00772).
T5 construct: purchased Sigma-Aldrich
T5 sequence (P00772 27-266): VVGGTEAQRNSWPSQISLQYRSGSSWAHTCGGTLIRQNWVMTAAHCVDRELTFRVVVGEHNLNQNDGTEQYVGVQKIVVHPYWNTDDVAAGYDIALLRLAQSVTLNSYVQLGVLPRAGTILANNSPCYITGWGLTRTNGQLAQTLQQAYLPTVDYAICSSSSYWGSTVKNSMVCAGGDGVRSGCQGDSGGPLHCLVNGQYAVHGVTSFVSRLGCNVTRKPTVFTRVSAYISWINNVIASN
Briefly: Elastase inhibition assay. Format: biochemical. The conditions noted are these: mean ± S.E., read-out: Inhibitory activities (%) Elastase; for inhibition at 10 µM: sample 10 μM; for inhibition at 100 µM: sample 100 μM.
Protocol: as §4, §5

Data set [12] deals with T6, α-secretase (tumor necrosis factor-α converting enzyme, TACE) (Homo sapiens, UniProt P78536).
T6 construct: purchased R&D Systems (Minneapolis, MN, USA)
T6 sequence (P78536 215-824): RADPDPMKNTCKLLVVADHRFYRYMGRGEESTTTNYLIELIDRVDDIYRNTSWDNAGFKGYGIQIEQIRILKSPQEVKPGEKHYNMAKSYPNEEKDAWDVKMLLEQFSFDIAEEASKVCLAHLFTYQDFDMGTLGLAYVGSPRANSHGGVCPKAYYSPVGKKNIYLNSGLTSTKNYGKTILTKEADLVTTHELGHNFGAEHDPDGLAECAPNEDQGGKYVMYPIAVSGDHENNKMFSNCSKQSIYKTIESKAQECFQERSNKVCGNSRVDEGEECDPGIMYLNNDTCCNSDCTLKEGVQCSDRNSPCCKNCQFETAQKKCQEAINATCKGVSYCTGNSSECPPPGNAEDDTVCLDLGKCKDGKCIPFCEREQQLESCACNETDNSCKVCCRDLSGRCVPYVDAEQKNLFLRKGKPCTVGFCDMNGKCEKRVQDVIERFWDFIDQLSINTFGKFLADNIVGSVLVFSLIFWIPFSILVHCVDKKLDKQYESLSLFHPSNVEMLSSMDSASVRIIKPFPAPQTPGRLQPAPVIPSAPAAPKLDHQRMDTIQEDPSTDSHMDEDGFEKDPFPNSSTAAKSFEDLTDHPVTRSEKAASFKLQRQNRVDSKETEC
Briefly: TACE (α-secretase) inhibition assay. Format: biochemical. The conditions noted are these: mean ± S.E., read-out: Inhibitory activities (%) TACE; for inhibition at 10 µM: sample 10 μM; for inhibition at 100 µM: sample 100 μM.
Protocol: as §4, §5

The subject of data set [13] is APP/PS1 Tg mice. To be noted: oral 100 mg/kg for 10 days ref 16; cited from earlier work.
Data set [14] concerns APPswe/PS1dE9 Tg mice. To be noted: chronic administration for 16 weeks ref 18; cited from earlier work.
The test system of data set [15] is cholinesterases. To be noted: several studies ref 20, 21; cited from earlier work.
For data set [16], the target named is T2, BChE. Briefly: Inhibition kinetics on BChE (Dixon and Lineweaver–Burk plots). Format: biochemical, equine. The method, then:
as §1, §2

The test system of data set [17] is AChE. The conditions noted are these: previous study ref 19; read-out: IC50 against AChE; cited from earlier work.
Data set [18] has as its system brains of rats. To be noted: pre-administration 40 mg/kg, oral; no reference given; cited from earlier work.

T3 sequence (P56817 46-501): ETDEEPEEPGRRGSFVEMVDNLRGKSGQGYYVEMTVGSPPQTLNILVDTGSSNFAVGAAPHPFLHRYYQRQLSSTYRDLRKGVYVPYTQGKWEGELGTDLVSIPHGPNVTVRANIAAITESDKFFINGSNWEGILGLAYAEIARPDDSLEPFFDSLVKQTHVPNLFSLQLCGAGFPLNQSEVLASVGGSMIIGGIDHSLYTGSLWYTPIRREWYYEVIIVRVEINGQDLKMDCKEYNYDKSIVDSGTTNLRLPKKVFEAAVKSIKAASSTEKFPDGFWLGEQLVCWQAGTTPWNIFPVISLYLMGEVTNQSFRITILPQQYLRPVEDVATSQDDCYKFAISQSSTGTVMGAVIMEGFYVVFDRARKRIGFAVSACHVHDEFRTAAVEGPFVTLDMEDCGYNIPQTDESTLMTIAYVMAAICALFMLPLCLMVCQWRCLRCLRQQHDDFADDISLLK

Turning to `O=C1CC(c2ccc(O)cc2)Oc2cc(O)cc(O)c21` (stereo not drawn) [Naringenin], in [1], the BBB crossing result is recorded as “cross the BBB”. The “Inhibition mode on AChE” value in data set [2] is listed as “noncompetitive inhibition”. Also, the Ki in data set [2] was 45.4 µM; in data set [5], 47.1 µM. Moreover, the IC50 in data set [3] is over 100 µM; in data set [4] it was 30.3 ± 2.06 µM; in [8], 42.7 ± 4.3 µM. Moreover, the “Inhibition mode on BACE1” value in data set [5] is recorded as “noncompetitive inhibition”. Further, the “Effect on scopolamine-induced amnesia” value in data set [6] was “significantly mitigated scopolamine-induced amnesia”. Also, the “Inhibitory activities (%) Trypsin” value in [7] (sample 10 μM) was 7.80 ± 1.25%; in data set [7] (sample 100 μM), 5.84 ± 0.75%. Besides, the values for the inhibition at 10 µM in [9], in [11] and in data set [12] were 8.77 ± 0.74%, 9.74 ± 0.41% and 5.15 ± 0.98%, respectively. Also, the inhibition at 100 µM is 6.88 ± 0.89% in data set [9], 10.5 ± 1.17% in data set [11] and 6.95 ± 1.52% in data set [12]. Besides, in data set [10] (intravenous naringenin 20 mg/kg ref 28), the “Presence in cerebral cortexes of rats” value was “identified”.

With `COc1ccc([C@@H]2CC(=O)c3c(O)cc(O[C@@H]4O[C@H](CO[C@@H]5O[C@@H](C)[C@H](O)[C@@H](O)[C@H]5O)[C@@H](O)[C@H](O)[C@H]4O)cc3O2)cc1O` [Hesperidin, hesperidin], the “Inhibition mode on AChE” value in data set [2] is recorded as “noncompetitive inhibition”. Besides, the Ki in [2] stood at 21.4 µM; in data set [5], 39.4 µM; in [16] (Dixon plot) it was 93.6 µM. In data set [13], the “Neuroprotective effect in APP/PS1 Tg mice” value is “recovered microglial activation, APP expression, Aβ deposition, and behavioral dysfunction”. In addition, the IC50 in [3] worked out at 48.1 ± 0.74 µM; in data set [4], 17 ± 1.25 µM; in [8] it was 22.8 ± 2.78 µM. The “Inhibition mode on BACE1” value in data set [5] was “noncompetitive inhibition”. The “Effect of chronic administration in APPswe/PS1dE9 Tg mice” value in data set [14] is “attenuated oxidative damage, increased anti-oxidative defense, and alleviated cognitive impairment”. Also, in data set [15], the “Inhibitory activity against cholinesterases” value is “low inhibitory activity”. The “Inhibitory activities (%) Trypsin” value in [7] (sample 10 μM) was found to be 2.27 ± 0.30%; in [7] (sample 100 μM) it was 1.41 ± 0.22%. The inhibition at 10 µM came to 3.19 ± 0.28% in [9], 6.91 ± 0.83% in data set [11] and 8.53 ± 1.05% in [12]. Further, the values for the inhibition at 100 µM in data set [9], in data set [11] and in data set [12] were 4.11 ± 0.34%, 6 ± 1.33% and 9.19 ± 1.2%, respectively. In addition, the “Presence in brain homogenates” value in data set [10] (systemic administration of hesperidin to rats ref 30) is given as “presence of hesperidin was confirmed by brain homogenates”. The “Inhibition mode on BChE” value in [16] (Dixon and Lineweaver–Burk plots) is listed as “noncompetitive inhibition”.

Turning to `COc1cc(O[C@@H]2O[C@H](CO[C@@H]3O[C@H](CO)[C@@H](O)[C@H](O)[C@H]3O)[C@@H](O)[C@H](O)[C@H]2O)c2c(O)c3c(=O)cc(C)oc3cc2c1` [Rubrofusarin-6-O-β-D-gentiobioside], the half-inhibitory concentration (IC50) in data set [17] is 15.9 ± 0.32 µM.

As for `COc1ccc(C2CC(=O)c3c(O)cc(O)cc3O2)cc1O` (stereo not drawn) [Hesperetin, 4′-methoxy-3′,5,7-trihydroxyflavanone], the “Effect on cadmium-induced damage in the brains of rats” value in [18] is “significantly attenuated cadmium-induced oxidative stress and mitochondrial dysfunction”. The BBB crossing entry in data set [1] was “cross the BBB”. For the same molecule, in data set [2], the “Inhibition mode on AChE” value is reported as “noncompetitive inhibition”. Further, the results for the Ki in [2] and in data set [5] were 53.9 µM and 42.7 µM, respectively. Also, the IC50 was over 100 µM in data set [3], 22.1 ± 1.81 µM in [4] and 45.7 ± 2.69 µM in data set [8]. The “Inhibition mode on BACE1” value in data set [5] is recorded as “noncompetitive inhibition”. In [15], the “Inhibitory activity against cholinesterases” value is “low inhibitory activity”. For the same molecule, the “Inhibitory activities (%) Trypsin” value in [7] (sample 10 μM) is reported as 5.31 ± 0.39%; in data set [7] (sample 100 μM), 4.72 ± 0.45%. The results for the inhibition at 10 µM in data set [9], in data set [11] and in [12] were 4.91 ± 1.4%, 4.84 ± 0.46% and 8.66 ± 0.7%, respectively. Further, the inhibition at 100 µM was determined as 9.21 ± 0.33% in [9], 9.95 ± 1.28% in [11] and 11.3 ± 1.37% in data set [12]. Moreover, in data set [10] (after oral administration of hesperidin ref 31), the “Presence in the rat brain” value is given as “detected in the rat brain”. In addition, the “Presence in the striatum of rat brains” value in data set [10] (intravenous 50 mg/kg ref 29) is on record as “detected in the striatum of rat brains”.
